# Measurements taken from patent US4049660A, “N-substituted derivatives of 4 (N-piperazinylmethyl) spiro dibenzocycloheptadi- (or tri-) ene-5, 2-dioxolane (1,3) their method of preparation and their application in therapeutics” (Delalande S.A., priority 1971, dated 1977).
# Like-named read-outs stand apart in the source and are kept apart here.
# Key:
# [1] = system: isolated duodenum of a rat (barium chloride); assay: Spasmolytic: contraction by barium chloride of isolated duodenum of a rat; details: for Spasmolytic activity: relative to papaverine as the standard
# Procedure: Compounds of formula I, introduced in the survival medium, are capable of opposing the contacting action of barium chloride on the isolated duodenum of a rat. This activity is determined either by taking papaverine as the standard or by calculating the DE50 of the compound tested.
# [2] = system: painful stretchings following intraperitoneal injection of acetic acid; assay: Analgesic: painful stretchings following intraperitoneal acetic acid in mouse; assay type: in vivo; details: 100 mg/kg/PO, read-out: Percentage reduction in the number of painful stretchings
# Description: The compounds of formula (I) administered orally to a mouse are capable of reducing the number of painful stretchings following the intraperitoneal injection of acetic acid.
# [3] = system: ventricular fibrillations caused by inhaling chloroform; assay: Antiarythmic: ventricular fibrillations caused by inhaling chloroform in mouse; assay type: in vivo; details: ip, intraperitoneal, read-out: Antagonism to fibrillations caused by chloroform with a mouse, DE50
# Description: Administered intraperitoneally, the compounds of formula (I) are able to protect the mouse against ventricular fibrillations caused by inhaling chloroform.
# [4] = system: isolated fundus of rats (serotonine); assay: Antiserotonine: contractions of the isolated fundus of rats provoked by serotonine; details: in vitro
# Description: (§1) For purposes of comparison, compounds of the formula (I) were compared, as to their antiserotonine properties, with a respresentative sampling of compounds disclosed in U.S. Pat. No. 3,726,900. The comparison compounds tested have the formula [drawing 23]
# [5] = Acute toxicity / mortality, oral, mice; assay type: in vivo; details: mouse, in vivo; for mortality: read-out: Percentage of mortality with mice; for LD50: oral
# Description: As is shown by the preceding results and by those given in Table XIV below, the difference between pharmacologically active doses and lethal doses is sufficiently great to allow the use of compounds of formula (I) in therapeutics.
# [6] = system: ptosis caused by reserpine; assay: Anti-depressive: antagonism against ptosis caused by intravenous reserpine; assay type: in vivo; details: for ED50: po, read-out: Antagonism against ptosis caused by reserpine (DE50)
# Procedure: (§2) In this regard, the compounds of formula I differ unexpectedly from the compounds of U.S. Pat. No. 3,726,900, as shown by comparative testing.
# (§3) The anti-depressive properties of additional analog compounds were tested by the same tests. In these tests, the comparison compounds had the formula [drawing 28] The specific compounds tested and the test results are indicated in Table XIII.
# [7] = system: lethal effect of yohimbine; assay: Anti-depressive: potentialization of lethal effect of yohimbine; assay type: in vivo
# Procedure: as §2, §3
# [8] = system: cough caused by stimulation of the upper laryngeal nerve; assay: Anti-cough: cough caused by stimulation of the upper laryngeal nerve in an anaesthetized cat; assay type: in vivo
# [9] = system: bronchoconstrictions provoked by serotonine; assay: Antiserotonine: bronchoconstrictions provoked by intravenous serotonine in guinea pigs (Konzett and Rossler test); assay type: in vivo; details: Cavia porcellus, serotonine bronchoconstriction, read-out: Test of Konzett and Rossler DE50
# Description: as §1
# [10] = system: isolated tied uterus (serotonine); assay: Antiserotonine: contractions of the isolated tied uterus provoked by serotonine; details: in vitro
# Description: as §1
# arterial pressure = assay: Hypotensive: arterial pressure of anaesthetized rat; assay type: in vivo
# Description: Administered intravenously to an anaesthetized rat, the compounds of formula (I) cause a lowering of arterial pressure.
# [11] = system: isolated ileum of a guinea pig (histamine); assay: Antihistamine: contraction by histamine of isolated ileum of a guinea pig
# Procedure: The compounds of formula (I) introduced in the survival medium are able to oppose the contracting action of histamine on the isolated ileum of a guinea pig. This activity is calculated by the DE50 of the tested compounds.
# urinary elimination = assay: Diuretic: volume of urine in mouse; assay type: in vivo; details: 4 hours, versus controls, read-out: Percentage increase in urinary elimination
# Procedure: The compounds of formula (I) administered orally to a mouse simultaneously with a volume of 1 ml of sodium chloride isotonic solute per 25 g of body weight are able to cause an increase of the volume of urine given compared with controls, this volume being measured for the 4 hours following administration.
# [12] = mice, Table XI, read-out: LD50 (mice)
# [13] = at 100 mg/kg/PO, result in words
# [14] = at 50 mg/kg/PO, result in words
compound,measurement,setting,value
"CCCN(CCC)C(=O)CN1CCN(CC2COC3(O2)c2ccccc2C=Cc2ccccc23)CC1 (stereo not drawn) [compound 7204, -4'-[N'-(di-n-propylaminocarbonylmethyl) N-piperazinylmethyl] spiro [dibenzo(a,d)cycloheptatriene-5:2' dioxolane (1',3')] dimaleate]",DE50 (spasmolytic),[1],2.50 µg/mL
same,inhibition in vivo at 100 mg/kg,[2],70%
same,ED50,[3],100 mg/kg
same,"Antagonisms against contractions of fundus of rat, DE50",[4],0.07 µg/mL
same,mortality,[5]; 1900 mg/kg/PO,~50%
same,LD50,[5]; [12],1900 mg/kg
"CCNCC1COC2(O1)c1ccccc1C=Cc1ccccc12 (stereo not drawn) [R = C2 H5 (--Z-- = --CH = CH--), reference compound]",LD50,"[5]; Table XIII, read-out: LD50",375 mg/kg
same,ED50,[6]; Table XIII,70 mg/kg
same,Potentialization of lethal effect of yohimbine,"[7]; at 50 mg/kg/PO, Table XIII",60%
O=C(CN1CCN(CC2COC3(O2)c2ccccc2CCc2ccccc23)CC1)N1CCOCC1 (stereo not drawn) [compound 70357],"Reduction of cough, duration",[8]; 2 mg/kg/IV,20 mm
same,"Reduction of cough, intensity",[8]; 2 mg/kg/IV,100%
same,Spasmolytic activity,[1],1.5 × papaverine
same,ED50,[9],0.005 mg/kg
same,"Antagonisms against contractions of tied uterus, DE50",[10],0.005 µg/mL
same,"Antagonisms against contractions of fundus of rat, DE50",[4],0.54 µg/mL
same,mortality,[5]; 1300 mg/kg/PO,~50%
same,LD50,[5]; [12],1300 mg/kg
same,Antagonism against ptosis caused by reserpine,[6]; at 100 mg/kg/PO,Inactive
same,Potentialization of lethal effect of yohimbine,[7]; [13],Inactive
"CNCC1COC2(O1)c1ccccc1CCc1ccccc12 (stereo not drawn) [R = CH3 (--Z-- = --CH2 --CH2 --), reference compound]",LD50,"[5]; Table XIII, read-out: LD50",850 mg/kg
same,ED50,[6]; Table XIII,60 mg/kg
CC(C)NC(=O)CN1CCN(CC2COC3(O2)c2ccccc2CCc2ccccc23)CC1 (stereo not drawn) [compound 70347],"Reduction of cough, duration",[8]; 1 mg/kg/IV,20 mm
same,"Reduction of cough, intensity",[8]; 1 mg/kg/IV,80%
same,Spasmolytic activity,[1],1.5 × papaverine
same,inhibition in vivo at 100 mg/kg,[2],70%
same,"Reduction of arterial pressure, duration",arterial pressure; 2 mg/kg/IV,> 30 mm
same,"Reduction of arterial pressure, intensity",arterial pressure; 2 mg/kg/IV,50%
same,ED50,[9],0.5 mg/kg
same,"Antagonisms against contractions of tied uterus, DE50",[10],0.02 µg/mL
same,mortality,[5]; 1200 mg/kg/PO,~50%
same,LD50,[5]; [12],1200 mg/kg
same,Antagonism against ptosis caused by reserpine,[6]; at 100 mg/kg/PO,Inactive
same,Potentialization of lethal effect of yohimbine,[7]; [13],Inactive
CNC(=O)CN1CCN(CC2COC3(O2)c2ccccc2C=Cc2ccccc23)CC1 (stereo not drawn) [compound 72188],inhibition in vivo at 100 mg/kg,[2],60%
same,ED50,[3],38 mg/kg
same,Antihistamine activity DE50,[11],1 µg/mL
same,change in vivo at 25 mg/kg,urinary elimination; 25 mg/kg/PO,40%
same,ED50,[9],0.25 mg/kg
same,mortality,[5]; 1100 mg/kg/PO,~50%
same,LD50,[5]; [12],1100 mg/kg
same,Antagonism against ptosis caused by reserpine,[6]; [14],Inactive
"CCC(C)NCC1COC2(O1)c1ccccc1CCc1ccccc12 (stereo not drawn) [R = C4 H9 (s) (--Z-- = --CH2 --CH2 --), reference compound]",LD50,"[5]; Table XIII, read-out: LD50",900 mg/kg
same,ED50,[6]; Table XIII,45 mg/kg
same,Potentialization of lethal effect of yohimbine,"[7]; at 50 mg/kg/PO, Table XIII",~40%
"CNCC1COC2(O1)c1ccccc1C=Cc1ccccc12 (stereo not drawn) [R = CH3 (--Z-- = --CH = CH--), reference compound]",LD50,"[5]; Table XIII, read-out: LD50",750 mg/kg
same,ED50,[6]; Table XIII,25 mg/kg
CC(C)NC(=O)CN1CCN(CC2COC3(O2)c2ccccc2C=Cc2ccccc23)CC1 (stereo not drawn) [compound 72134],ED50,[3],65 mg/kg
same,Antihistamine activity DE50,[11],1 µg/mL
same,change in vivo at 50 mg/kg,urinary elimination; 50 mg/kg/PO,55%
same,mortality,[5]; 1200 mg/kg/PO,~50%
same,LD50,[5]; [12],1200 mg/kg
same,Antagonism against ptosis caused by reserpine,[6]; [14],Inactive
"CCNCC1COC2(O1)c1ccccc1CCc1ccccc12 (stereo not drawn) [R = C2 H5 (--Z-- = --CH2 --CH2 --), reference compound]",LD50,"[5]; Table XIII, read-out: LD50",550 mg/kg
same,ED50,[6]; Table XIII,~50 mg/kg
"C1=Cc2ccccc2C2(OCC(CN3CCCCC3)O2)c2ccccc21 (stereo not drawn) [compound 70315, reference compound]",ED50,[9],1.4 mg/kg
same,LD50,[5]; [12],700 mg/kg
same,Antagonism against ptosis caused by reserpine,[6]; at 75 mg/kg/PO,45%
O=C(CN1CCN(CC2COC3(O2)c2ccccc2CCc2ccccc23)CC1)N1CCCC1 (stereo not drawn) [compound 70339],"Reduction of cough, duration",[8]; 1 mg/kg/IV,20 mm
same,"Reduction of cough, intensity",[8]; 1 mg/kg/IV,100%
same,Spasmolytic activity,[1],1 × papaverine
same,inhibition in vivo at 100 mg/kg,[2],75%
same,"Reduction of arterial pressure, duration",arterial pressure; 1 mg/kg/IV,> 30 mm
same,"Reduction of arterial pressure, intensity",arterial pressure; 1 mg/kg/IV,80%
same,ED50,[9],0.1 mg/kg
same,"Antagonisms against contractions of tied uterus, DE50",[10],0.002 µg/mL
same,"Antagonisms against contractions of fundus of rat, DE50",[4],0.67 µg/mL
same,mortality,[5]; 1200 mg/kg/PO,~50%
same,LD50,[5]; [12],1200 mg/kg
same,Antagonism against ptosis caused by reserpine,[6]; at 100 mg/kg/PO,Inactive
same,Potentialization of lethal effect of yohimbine,[7]; [13],Inactive
"CC(C)NCC1COC2(O1)c1ccccc1C=Cc1ccccc12 (stereo not drawn) [R = C3 H7 (i) (--Z-- = --CH = CH--), reference compound]",LD50,"[5]; Table XIII, read-out: LD50",550 mg/kg
same,Antagonism against ptosis caused by reserpine,"[6]; at 50 mg/kg/PO, Table XIII",20%
CCOC(=O)CN1CCN(CC2COC3(O2)c2ccccc2CCc2ccccc23)CC1 (stereo not drawn) [compound 70365],Spasmolytic activity,[1],3 × papaverine
same,inhibition in vivo at 100 mg/kg,[2],75%
same,ED50,[9],0.6 mg/kg
same,mortality,[5]; 1250 mg/kg/PO,~50%
same,LD50,[5]; [12],1250 mg/kg
same,Antagonism against ptosis caused by reserpine,[6]; at 100 mg/kg/PO,Inactive
same,Potentialization of lethal effect of yohimbine,[7]; [13],Inactive
c1ccc(C(c2ccccc2)N2CCN(CC3COC4(O3)c3ccccc3CCc3ccccc34)CC2)cc1 (stereo not drawn) [compound 70374],"Reduction of arterial pressure, duration",arterial pressure; 2 mg/kg/IV,20 mm
same,"Reduction of arterial pressure, intensity",arterial pressure; 2 mg/kg/IV,35%
same,mortality,[5]; 2000 mg/kg/PO,0%
same,LD50,"[5]; Table XII, read-out: LD50",> 2000 mg/kg
same,Antagonism against ptosis caused by reserpine,[6]; at 100 mg/kg/PO,Inactive
same,Potentialization of lethal effect of yohimbine,[7]; [13],Inactive
"C1=Cc2ccccc2C2(OCC(CN3CCCC3)O2)c2ccccc21 (stereo not drawn) [compound 70301, reference compound]",ED50,[9],0.4 mg/kg
same,LD50,[5]; [12],425 mg/kg
"OCC(O)CN1CCN(CC2COC3(O2)c2ccccc2CCc2ccccc23)CC1 (stereo not drawn) [compound 70405, 4'-N'-(2"",3""-dihydroxy ""-propyl)N-piperazinyl methyl spiro dibenzo (a,d) cycloheptadiene-5:2' dioxolane (1',3') dimaleate]","Reduction of cough, duration",[8]; 100 mg/kg/ID,60 mm
same,"Reduction of cough, intensity",[8]; 100 mg/kg/ID,100%
same,"Reduction of arterial pressure, duration",arterial pressure; 2 mg/kg/IV,> 60 mm
same,"Reduction of arterial pressure, intensity",arterial pressure; 2 mg/kg/IV,40%
same,mortality,[5]; 1600 mg/kg/PO,~50%
O=C(CN1CCN(CC2COC3(O2)c2ccccc2C=Cc2ccccc23)CC1)N1CCCCCC1 (stereo not drawn) [compound 72176],DE50 (spasmolytic),[1],3.50 µg/mL
same,ED50,[3],100 mg/kg
same,Antihistamine activity DE50,[11],0.5 µg/mL
same,mortality,[5]; 3400 mg/kg/PO,~50%
